# Biological target: T1, human Edg-1 (S1P1) (Homo sapiens, UniProt P21453)
# T1 construct: expressed in transfected cells; host or cells: HEK-293
# Assay: S1P1 binding assay: inhibition of [33P]-S1P binding to membrane fraction of HEK-293 cells transferred with the human Edg-1 (S1P1) gene
# Details: test compound 10 μM; inhibition of [33P]-S1P binding, membrane fraction
# In short: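 With 0.1 nM [33P]-S1P and compound (10^−5M single point, or a concentration range for IC50) in 0.1% DMSO, membrane fractions from human Edg-1-expressing HEK-293 cells were treated for one hour at 30° C in 20 mM Tris-HCl pH 7.4 with NaF, deoxypyridoxine and BSA. Bound label was measured after filtration, with untransfected-cell background subtracted.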
# T1 sequence (P21453 whole entry): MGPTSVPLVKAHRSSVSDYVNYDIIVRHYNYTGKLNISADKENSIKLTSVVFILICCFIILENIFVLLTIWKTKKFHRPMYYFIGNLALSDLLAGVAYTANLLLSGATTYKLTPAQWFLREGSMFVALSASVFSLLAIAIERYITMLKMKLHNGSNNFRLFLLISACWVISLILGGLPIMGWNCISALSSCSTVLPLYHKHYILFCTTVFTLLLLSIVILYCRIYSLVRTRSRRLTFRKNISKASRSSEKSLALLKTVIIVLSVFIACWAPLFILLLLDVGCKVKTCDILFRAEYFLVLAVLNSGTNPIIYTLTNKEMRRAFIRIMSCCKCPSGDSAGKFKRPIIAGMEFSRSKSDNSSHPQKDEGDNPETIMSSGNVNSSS
row,Compound,inhibition at 10 µM [%]
1,CCn1c(Oc2cccc(N3CCN(C)CC3)c2)nnc1[C@@H](C)NS(=O)(=O)c1ccc(Br)cc1F [Compound 582],106
2,CCn1c(Oc2cccc(N3CCN(C)CC3)c2)nnc1[C@@H](C)NS(=O)(=O)c1cc(F)c(Cl)cc1F [Compound 583],109
3,CCn1c(Oc2cccc(N3CCN(C)CC3)c2)nnc1[C@@H](C)NS(=O)(=O)Cc1ccc(Cl)c(Cl)c1 [Compound 586],87.9
4,CCn1c(Oc2cccc(N3CCN(C)CC3)c2)nnc1[C@@H](C)NS(=O)(=O)CC(c1ccccc1)c1ccccc1 [Compound 587],60
5,CCn1c(Oc2cccc(N3CCN(C)CC3)c2)nnc1[C@@H](C)NS(=O)(=O)c1cc(C)c(Cl)cc1Cl [Compound 588],109
6,CCn1c(Oc2cccc(N3CCN(C)CC3)c2)nnc1[C@@H](C)NS(=O)(=O)c1c(F)c(Br)cc(F)c1Br [Compound 589],80.2
7,CCn1c(Oc2cccc(N3CCN(C)CC3)c2)nnc1[C@@H](C)NS(=O)(=O)c1c(F)cccc1F [Compound 590],62.3
8,CCn1c(Oc2cccc(N3CCN(C)CC3)c2)nnc1[C@@H](C)NS(=O)(=O)c1cc(C(F)(F)F)ccc1Cl [Compound 591],77.5
9,CCn1c(Oc2cccc(N3CCN(C)CC3)c2)nnc1[C@@H](C)NS(=O)(=O)c1cccc(F)c1 [Compound 592],95.8
10,CCn1c(Oc2cccc(N3CCN(C)CC3)c2)nnc1[C@@H](C)NS(=O)(=O)c1ccc(NC(C)=O)c(Cl)c1 [Compound 593],65.9
11,CCn1c(Oc2cccc(N3CCN(C)CC3)c2)nnc1[C@@H](C)NS(=O)(=O)c1cc(Cl)ccc1OC [Compound 594],84
12,CCn1c(Oc2cccc(N3CCN(C)CC3)c2)nnc1[C@@H](C)NS(=O)(=O)c1c(C)cc(Cl)cc1Cl [Compound 595],93.7
13,CCn1c(Oc2cccc(N3CCN(C)CC3)c2)nnc1[C@@H](C)NS(=O)(=O)c1cc(F)c(F)cc1F [Compound 596],100
14,CCn1c(Oc2cccc(N3CCN(C)CC3)c2)nnc1[C@@H](C)NS(=O)(=O)c1cc(Br)ccc1Br [Compound 597],97.3
15,CCn1c(Oc2cccc(N3CCN(C)CC3)c2)nnc1[C@@H](C)NS(=O)(=O)c1ccc(-c2ccno2)s1 [Compound 598],89.5
16,CCn1c(Oc2cccc(N3CCN(C)CC3)c2)nnc1[C@@H](C)NS(=O)(=O)Cc1cccc(Cl)c1 [Compound 599],80.6
17,CCn1c(Oc2cccc(N3CCN(C)CC3)c2)nnc1[C@@H](C)NS(=O)(=O)c1ccc(Br)cc1Br [Compound 600],100
18,CCn1c(Oc2cccc(N3CCN(C)CC3)c2)nnc1[C@@H](C)NS(=O)(=O)c1ccc(F)c(C#N)c1 [Compound 601],100
19,CCn1c(Oc2cccc(N3CCN(C)CC3)c2)nnc1[C@@H](C)NS(=O)(=O)c1cc(C)cc(C)c1 [Compound 602],107
20,CCn1c(Oc2cccc(N3CCN(C)CC3)c2)nnc1[C@@H](C)NS(=O)(=O)c1ccc(OC(F)F)cc1 [Compound 603],107
21,CCn1c(Oc2cccc(N3CCN(C)CC3)c2)nnc1[C@@H](C)NS(=O)(=O)c1cccc(OC(F)F)c1 [Compound 604],109

row,Compound,inhibition at 10 µM [%]
1,CCn1c(Oc2cccc(N3CCN(C)CC3)c2)nnc1[C@@H](C)NS(=O)(=O)c1c(F)cc(F)cc1Br [Compound 605],83.4
2,CCn1c(Oc2cccc(N3CCN(C)CC3)c2)nnc1[C@@H](C)NS(=O)(=O)c1cc(F)cc(F)c1 [Compound 606],108
3,CCn1c(Oc2cccc(N3CCN(C)CC3)c2)nnc1[C@@H](C)NS(=O)(=O)c1cc(F)c(F)c(F)c1 [Compound 608],109
4,CCn1c(Oc2cccc(N3CCN(C)CC3)c2)nnc1[C@@H](C)NS(=O)(=O)c1ccc(F)cc1Br [Compound 609],93.1
5,CCn1c(Oc2cccc(N3CCN(C)CC3)c2)nnc1[C@@H](C)NS(=O)(=O)c1ccc(C(F)(F)F)cc1Br [Compound 610],91.2
6,CCn1c(Oc2cccc(N3CCN(C)CC3)c2)nnc1[C@@H](C)NS(=O)(=O)c1cc(C(F)(F)F)ccc1Br [Compound 611],63.9
7,CCn1c(Oc2cccc(N3CCN(C)CC3)c2)nnc1[C@@H](C)NS(=O)(=O)c1ccc(C)c(F)c1 [Compound 612],114
8,CCn1c(Oc2cccc(N3CCN(C)CC3)c2)nnc1[C@@H](C)NS(=O)(=O)c1ccc(F)cc1C [Compound 613],90.9
9,CCn1c(Oc2cccc(N3CCN(C)CC3)c2)nnc1[C@@H](C)NS(=O)(=O)c1cc(Cl)ccc1F [Compound 614],77.8
10,CCn1c(Oc2cccc(N3CCN(C)CC3)c2)nnc1[C@@H](C)NS(=O)(=O)c1ccc(Br)c(F)c1 [Compound 615],110
11,CCn1c(Oc2cccc(N3CCN(C)CC3)c2)nnc1[C@@H](C)NS(=O)(=O)c1ccc(Br)cc1Cl [Compound 616],99.9
12,CCn1c(Oc2cccc(N3CCN(C)CC3)c2)nnc1[C@@H](C)NS(=O)(=O)c1c(Cl)cc(Br)cc1Cl [Compound 617],77.5
13,CCn1c(Oc2cccc(N3CCN(C)CC3)c2)nnc1[C@@H](C)NS(=O)(=O)CCCOc1ccc(OC)cc1 [Compound 618],65.4
14,CCn1c(Oc2cccc(N3CCN(C)CC3)c2)nnc1[C@@H](C)NS(=O)(=O)c1ccc(C)c(C)c1 [Compound 619],114
15,CCn1c(Oc2cccc(N3CCN(C)CC3)c2)nnc1[C@@H](C)NS(=O)(=O)c1cc(C)ccc1F [Compound 620],88.4
16,CCn1c(Oc2cccc(N3CCN(C)CC3)c2)nnc1[C@@H](C)NS(=O)(=O)c1cccc(Cl)c1F [Compound 621],95.4
17,CCn1c(Oc2cccc(N3CCN(C)CC3)c2)nnc1[C@@H](C)NS(=O)(=O)c1ccc(F)cc1C(F)(F)F [Compound 622],58.9
18,CCn1c(Oc2cccc(N3CCN(C)CC3)c2)nnc1[C@@H](C)NS(=O)(=O)c1ccccc1OC [Compound 626],61.1
19,CCn1c(Oc2cccc(N3CCN(C)CC3)c2)nnc1[C@@H](C)NS(=O)(=O)CC1CCCCC1 [Compound 627],90
20,CCCCCCCCCCS(=O)(=O)N[C@H](C)c1nnc(Oc2cccc(N3CCN(C)CC3)c2)n1CC [Compound 628],64.4
21,CCn1c(Oc2cccc(N3CCN(C)CC3)c2)nnc1[C@@H](C)NS(=O)(=O)c1cc(C)oc1C(F)(F)F [Compound 629],101

row,Compound,inhibition at 10 µM [%]
1,CCn1c(Oc2cccc(N3CCN(C)CC3)c2)nnc1[C@@H](C)NS(=O)(=O)c1ccc2c(c1)OCCO2 [Compound 630],107
2,CCn1c(Oc2cccc(N3CCN(C)CC3)c2)nnc1[C@@H](C)NS(=O)(=O)c1sc(C)nc1C [Compound 631],95.2
3,CCn1c(Oc2cccc(N3CCN(C)CC3)c2)nnc1[C@@H](C)NS(=O)(=O)c1cccc2nsnc12 [Compound 632],59.9
4,CCn1c(Oc2cccc(N3CCN(C)CC3)c2)nnc1[C@@H](C)NS(=O)(=O)c1ccc2nsnc2c1 [Compound 633],111
5,CCn1c(Oc2cccc(N3CCN(C)CC3)c2)nnc1[C@@H](C)NS(=O)(=O)c1cccc2nonc12 [Compound 634],51
6,CCn1c(Oc2cccc(N3CCN(C)CC3)c2)nnc1[C@@H](C)NS(=O)(=O)c1ccsc1 [Compound 635],68.7
7,CCn1c(Oc2cccc(N3CCN(C)CC3)c2)nnc1[C@@H](C)NS(=O)(=O)c1ccc(-c2cnco2)s1 [Compound 636],85.7
8,CCn1c(Oc2cccc(N3CCN(C)CC3)c2)nnc1[C@@H](C)NS(=O)(=O)c1cnn(-c2ccccc2)c1C [Compound 637],50.6
9,CCn1c(Oc2cccc(N3CCN(C)CC3)c2)nnc1[C@@H](C)NS(=O)(=O)c1ccc(-c2ccnc(SC)n2)s1 [Compound 640],59.5
10,CCn1c(Oc2cccc(N3CCN(C)CC3)c2)nnc1[C@@H](C)NS(=O)(=O)c1cc(C)sc1C [Compound 641],85.2
11,CCn1c(Oc2cccc(N3CCN(C)CC3)c2)nnc1[C@@H](C)NS(=O)(=O)c1ccc(OC)cc1OC [Compound 642],85.5
12,CCn1c(Oc2cccc(N3CCN(C)CC3)c2)nnc1[C@@H](C)NS(=O)(=O)c1ccc(C(F)(F)F)cc1Cl [Compound 644],93
13,CCn1c(Oc2cccc(N3CCN(C)CC3)c2)nnc1[C@@H](C)NS(=O)(=O)c1cccc(C(C)=O)c1 [Compound 647],99
14,CCn1c(Oc2cccc(N3CCN(C)CC3)c2)nnc1[C@@H](C)NS(=O)(=O)c1ccc(F)c2ccccc12 [Compound 648],108
15,CCOc1ccc(NC(C)=O)cc1S(=O)(=O)N[C@H](C)c1nnc(Oc2cccc(N3CCN(C)CC3)c2)n1CC [Compound 649],64.7
16,CCc1ccc(OC)c(S(=O)(=O)N[C@H](C)c2nnc(Oc3cccc(N4CCN(C)CC4)c3)n2CC)c1 [Compound 652],91.9
17,CCn1c(Oc2cccc(N3CCN(C)CC3)c2)nnc1[C@@H](C)NS(=O)(=O)c1ccc(Cl)c(S(N)(=O)=O)c1 [Compound 654],71.7
18,CCn1c(Oc2cccc(N3CCN(C)CC3)c2)nnc1[C@@H](C)NS(=O)(=O)c1ccc(Br)c(C(F)(F)F)c1 [Compound 657],94.9
19,CCn1c(Oc2cccc(N3CCN(C)CC3)c2)nnc1[C@@H](C)NS(=O)(=O)c1cc(Br)cc(C(F)(F)F)c1 [Compound 658],80.4
20,CCn1c(Oc2cccc(N3CCN(C)CC3)c2)nnc1[C@@H](C)NS(=O)(=O)c1csc2ccccc12 [Compound 662],95.4
21,CCn1c(Oc2cccc(N3CCN(C)CC3)c2)nnc1[C@@H](C)NS(=O)(=O)c1ccc2cc(C)ccc2c1 [Compound 668],98.6

# From patent publication US8022091B2, “Triazole derivative” (Taisho Pharmaceutical Co., Ltd., priority 2006, dated 2011)
